Among the data in US10947252B2, “Inhibitors of KEAP1-Nrf2 protein-protein interaction” (Janssen Pharmaceutica NV, priority 2018, dated 2021) are Kd and EC50 values, retold here.

The structures appear in SMILES notation.

Assay [1] concerns the target Kelch domain of human KEAP1 (321-624 aa) (Homo sapiens (Human), UniProt Q14145). In words: KEAP1 KELCH ThermoFluor binding assay.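 Further: Ligand-induced melting temperature shift of E. coli-expressed KEAP1 Kelch protein, Kd estimated from concentration-response curves of ΔTm.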 As to conditions: KEAP Kelch […], 1,8-ANS, pH 7.0, average of results obtained, read-out: Tf Kd. Background: DSF heats the sample and reads unfolding from a dye or from intrinsic fluorescence.
Text: The shift in the melting point described as a ΔTm is proportional to the concentration and affinity of the ligand. The compound potency may be compared as a rank order of either ΔTm values at a single compound concentration or in terms of KD values, estimated from concentration response curves.
The protein was expressed in E. coli with 6His tag that was cleaved prior to receipt for use.
Protein (KEAP Kelch) and compound solutions were dispensed into black 384-well polypropylene PCR microplates (Abgene) and overlayed with silicone oil (1 μL, Fluka, type DC 200) to prevent evaporation.
For assay [2], the system named is Glo-Response ARE-luc2P HEK293 cell line. In words: ARE luciferase reporter cell-based assay.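 Further: luciferase signal tracks Nrf2 activation of the ARE once compounds disrupt KEAP1-Nrf2 binding, read with One-Glo reagent, DMSO serving as low control.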 As to conditions: Homo sapiens, HEK293, 24 h, average of results obtained. Background: In a reporter assay the amount or activity of a reporter protein is the signal.

Chain of Kelch domain of human KEAP1 (321-624 aa) (Q14145 321-624): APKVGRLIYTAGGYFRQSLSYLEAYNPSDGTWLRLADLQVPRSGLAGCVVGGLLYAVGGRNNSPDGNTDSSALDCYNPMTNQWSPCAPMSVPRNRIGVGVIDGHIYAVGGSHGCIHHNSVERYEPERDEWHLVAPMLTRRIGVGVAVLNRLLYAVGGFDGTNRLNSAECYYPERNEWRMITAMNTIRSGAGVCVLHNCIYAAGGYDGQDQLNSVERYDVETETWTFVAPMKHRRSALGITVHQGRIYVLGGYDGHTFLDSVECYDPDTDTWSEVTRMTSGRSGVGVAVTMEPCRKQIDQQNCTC

For `Cc1ccc([C@H](c2ccn3c(C(F)(F)F)nnc3c2C)C(C)(C)C(=O)O)cc1CN1CC2(CCOCC2)Oc2nc(CCC(=O)NCCO)ccc2S1(=O)=O` (single isomer, unassigned) [Example 128, (*R)-3-(3-((7′-(3-((2-Hydroxyethyl)amino)-3-oxopropyl)-1′,1′-dioxido-2,3,5,6-tetrahydrospiro[pyran-4,4′-pyrido[2,3-b][1,4,5]oxathiazepin]-2′(3′H)-yl)methyl)-4-methylphenyl)-2,2-dimethyl-3-(8-methyl-3-(trifluoromethyl)-[1,2,4]triazolo[4,3-a]pyridine-7-yl)propanoic Acid], the Kd – broadly, a measure of binding affinity in units of concentration – in assay [1] is below 1 nM. Also, a half-maximal response in assay [2] (EC50) required 308 nM.

As to `Cc1ccc([C@H](CC(N)=O)c2ccn3c(C(F)(F)F)nnc3c2C)cc1CN1C[C@@H]2CCCCN2c2ncccc2S1(=O)=O` (single isomer, unassigned) [Example 548, (*S)-3-(3-(((*S)-5,5-Dioxido-7,7a,8,9,10,11-hexahydro-6H-dipyrido[2,1-d:2′,3′-f][1,2,5]thiadiazepin-6-yl)methyl)-4-methylphenyl)-3-(8-methyl-3-(trifluoromethyl)-[1,2,4]triazolo[4,3-a]pyridin-7-yl)propanamide], the dissociation constant Kd in assay [1] is 260 nM. It took 2740 nM to reach a half-maximal effect in assay [2] (EC50).

On to `Cc1ccc([C@@H](CC(=O)O)c2cc(OC(F)F)c3c(c2)nnn3C)cc1CN1C[C@H]2CCCCN2c2ncccc2S1(=O)=O` (single isomer, unassigned) [Example 3, (*R)-3-(7-(Difluoromethoxy)-1-methyl-1H-benzo[d][1,2,3]triazol-5-yl)-3-(3-(((*R)-5,5-dioxido-7,7a,8,9,10,11-hexahydro-6H-dipyrido[2,1-d:2′,3′-f][1,2,5]thiadiazepin-6-yl)methyl)-4-methylphenyl)propanoic Acid], for which the Kd in assay [1] was found to be 0.041 nM. The half-maximal effective concentration (EC50) (usually the concentration giving half of the maximal effect) in assay [2] came out at 35 nM.

Turning to `CCc1nnc2c(C)c([C@H](CC(=O)O)c3ccc(C)c(CN4C[C@H]5CCCN5c5ncccc5S4(=O)=O)c3)ccn12` (single isomer, unassigned) [Example 283, (*R)-3-(3-(((R)-5,5-dioxido-7a,8,9,10-tetrahydropyrido[2,3-f]pyrrolo[2,1-d][1,2,5]thiadiazepin-6(7H)-yl)methyl)-4-methylphenyl)-3-(3-ethyl-8-methyl-[1,2,4]triazolo[4,3-a]pyridin-7-yl)propanoic Acid], the Kd in assay [1] is below 1 nM. In addition, in assay [2], a half-maximal effect (EC50) was put at 4170 nM.

Regarding `Cc1ccc(C(CC(=O)O)c2ccn3c(C(F)(F)F)nnc3c2C)cc1CN1CC2(CC2)N(C)c2ncccc2S1(=O)=O` (racemic) [Example 183, (R/S)-3-(4-Methyl-3-((5′-methyl-1′,1′-dioxido-5′H-spiro[cyclopropane-1,4′-pyrido[2,3-f][1,2,5]thiadiazepin]-2′(3′H)-yl)methyl)phenyl)-3-(8-methyl-3-(trifluoromethyl)-[1,2,4]triazolo[4,3-a]pyridin-7-yl)propanoic Acid], the Kd in assay [1] is 1.6 nM. The EC50 in assay [2] is 370 nM.

Consider `Cc1ccc([C@@H](CC(=O)O)c2ccn3c(C(F)(F)F)nnc3c2C)nc1CN1C[C@H]2CCCCN2c2ncc(C#N)cc2S1(=O)=O` (single isomer, unassigned) [Example 35, (*S)-3-(6-(((*R)-3-Cyano-5,5-dioxido-7,7a,8,9,10,11-hexahydro-6H-dipyrido[2,1-d:2′,3′-f][1,2,5]thiadiazepin-6-yl)methyl)-5-methylpyridin-2-yl)-3-(8-methyl-3-(trifluoromethyl)-[1,2,4]triazolo[4,3-a]pyridin-7-yl)propanoic Acid], for which, in assay [1], the Kd is below 1 nM. The same compound displayed an EC50 in assay [2] of 65.7 nM.

As for `Cc1ccc([C@H](CC(=O)O)c2ccn3c(C(F)(F)F)nnc3c2C)cc1CN1CC(C)(C)Oc2ccccc2S1(=O)=O` (single isomer, unassigned) [Example 285, (*S)-3-(3-((4,4-Dimethyl-1,1-dioxido-3,4-dihydro-2H-benzo[b][1,4,5]oxathiazepin-2-yl)methyl)-4-methylphenyl)-3-(8-methyl-3-(trifluoromethyl)-[1,2,4]triazolo[4,3-a]pyridin-7-yl)propanoic Acid], the Kd in assay [1] stood at 1.1 nM. Moreover, the EC50 in assay [2] came out at 129 nM.

Consider `Cc1ccc([C@@H](CC(=O)O)c2ccn3c(C(F)(F)F)nnc3c2C)nc1CN1CC2(COC2)Oc2ncccc2S1(=O)=O` (single isomer, unassigned) [Example 494, (*S)-3-(6-((1′,1′-Dioxidospiro[oxetane-3,4′-pyrido[2,3-b][1,4,5]oxathiazepin]-2′(3′H)-yl)methyl)-5-methylpyridin-2-yl)-3-(8-methyl-3-(trifluoromethyl)-[1,2,4]triazolo[4,3-a]pyridin-7-yl)propanoic Acid], for which the Kd in assay [1] was below 1 nM. For the same compound, a half-maximal effect in assay [2] (EC50) was put at 577 nM.

Regarding `Cc1ccc([C@H](CC(=O)O)c2ccn3c(C(F)(F)F)nnc3c2C)cc1CN1CC2(CC2)Oc2nc(N(C)CCCO)ccc2S1(=O)=O` (single isomer, unassigned) [Example 108, (*S)-3-(-3-((7′-((3-Hydroxypropyl)(methyl)amino)-1′,1′-dioxidospiro[cyclopropane-1,4′-pyrido[2,3-b][1,4,5]oxathiazepin]-2′(3′H)-yl)methyl)-4-methylphenyl)-3-(8-methyl-3-(trifluoromethyl)-[1,2,4[triazolo[4,3-a]pyridine-7-yl)propanoic Acid], the Kd in assay [1] was below 1 nM. Besides, in assay [2], the EC50 amounted to 406 nM.

As to `Cc1ccc([C@H](CC(=O)O)c2ccn3c(C(F)F)nnc3c2C)cc1CN1CC2(COC2)Oc2ncccc2S1(=O)=O` (single isomer, unassigned) [Example 470, (*S)-3-(3-(Difluoromethyl)-8-methyl-[1,2,4]triazolo[4,3-a]pyridin-7-yl)-3-(3-((1′,1′-dioxidospiro[oxetane-3,4′-pyrido[2,3-b][1,4,5]oxathiazepin]-2′(3′H)-yl)methyl)-4-methylphenyl)propanoic Acid], the equilibrium dissociation constant (Kd) in assay [1] is below 1 nM. Moreover, it took 472 nM to reach a half-maximal effect in assay [2] (EC50).

In the case of `Cc1ccc([C@@H](CC(=O)O)c2ccn3c(C(F)F)nnc3c2C)cc1CN1CC2(CCOCC2)Oc2ccc(F)cc2S1(=O)=O` (single isomer, unassigned) [Example 525, (*R)-3-(3-(Difluoromethyl)-8-methyl-[1,2,4]triazolo[4,3-a]pyridin-7-yl)-3-(3-((8-fluoro-1,1-dioxido-2′,3′,5′,6′-tetrahydrospiro[benzo[b][1,4,5]oxathiazepine-4,4′-pyran]-2(3H)-yl)methyl)-4-methylphenyl)propanoic Acid], the Kd in assay [1] is below 1 nM. The compound also registered an EC50 in assay [2] of 38.8 nM.

Take `Cc1ccc(C(CC(=O)O)c2ccn3c(C(F)(F)F)nnc3c2C)cc1CN1CC(C)(C)Oc2ncccc2S1(=O)=O` (stereo not drawn) [Example 268, 3-(3-((4,4-Dimethyl-1,1-dioxido-3,4-dihydro-2H-pyrido[2,3-b][1,4,5]oxathiazepin-2-yl)methyl)-4-methylphenyl)-3-(8-methyl-3-(trifluoromethyl)-[1,2,4]triazolo[4,3-a]pyridin-7-yl)propanoic Acid]: the Kd in assay [1] was below 1 nM. The same compound yielded an EC50 in assay [2] of 516 nM.
